Test results as given in patent publication US20250163077A1, “MEMBRANE-ASSOCIATED TYROSINE- AND THREONINE-SPECIFIC CDC2-INHIBITORY KINASE (PKMYT1) INHIBITORS AND USES THEREOF” (Insilico Medicine IP Limited, priority 2022, published 2025).

Experiments:
WEE1 = WEE1 (Homo sapiens (Human), UniProt P30291); assay: WEE1 ADP-Glo Assay; type: biochemical; conditions: compound 10 μM to 0.5 nM
Description: Compound serial dilution is performed by Echo, and the final concentrations vary from 10 μM to 0.5 nM. This was filled by the addition of 5 μL/well of Enzyme solution to the assay plate containing the compound. The plate was centrifuged at 1000 rpm for 1 minute, and incubate 15 minutes at 25° C. Then 5 μL/well of substrate solution was added to initiate the reaction, and incubate for 60 minutes at 25° C. Next 10 μL kinase detection reagent was added into the assay plate, the plate was centrifuged at 1000 rpm for 1 minute, and incubate for 60 minutes at […]. The assay plate was read on Envision for US LUM as RLU.

PKMYT1 = PKMYT1 (Homo sapiens (Human), UniProt Q99640); assay: PKMYT1 HTRF Assay; type: binding; conditions: Tracer 178, compound 10 μM to 0.5 nM, read-out: MYT1 HTRF IC50
Description: Compound serial dilution is performed by Echo, and the final concentrations vary from 10 μM to 0.5 nM. This was filled by the addition of 5 μL/well of Enzyme solution to the assay plate containing the compound. The plate was centrifuged at 1000 rpm for 1 minute, and incubate 15 minutes at 25° C. […] Next 5 μL GST-Tb was added into the assay plate, the plate was centrifuged at 1000 rpm for 1 minute, and incubate for 15 minutes at 25° C. The assay plate was read on Envision.

Sequence of PKMYT1 (Q99640 whole entry): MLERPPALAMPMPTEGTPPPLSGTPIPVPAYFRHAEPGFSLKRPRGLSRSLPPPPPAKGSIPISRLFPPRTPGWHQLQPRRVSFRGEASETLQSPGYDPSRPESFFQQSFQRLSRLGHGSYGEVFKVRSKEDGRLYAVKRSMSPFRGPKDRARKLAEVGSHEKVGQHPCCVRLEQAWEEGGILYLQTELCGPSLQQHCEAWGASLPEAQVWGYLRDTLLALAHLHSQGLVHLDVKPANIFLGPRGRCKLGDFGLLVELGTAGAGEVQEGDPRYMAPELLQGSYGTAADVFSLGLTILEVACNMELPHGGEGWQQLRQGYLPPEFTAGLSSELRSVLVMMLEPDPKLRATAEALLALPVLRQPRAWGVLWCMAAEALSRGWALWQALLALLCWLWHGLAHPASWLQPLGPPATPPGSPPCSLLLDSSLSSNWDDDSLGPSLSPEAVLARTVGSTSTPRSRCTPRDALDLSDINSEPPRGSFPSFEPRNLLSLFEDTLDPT
Sequence of WEE1 (P30291 whole entry): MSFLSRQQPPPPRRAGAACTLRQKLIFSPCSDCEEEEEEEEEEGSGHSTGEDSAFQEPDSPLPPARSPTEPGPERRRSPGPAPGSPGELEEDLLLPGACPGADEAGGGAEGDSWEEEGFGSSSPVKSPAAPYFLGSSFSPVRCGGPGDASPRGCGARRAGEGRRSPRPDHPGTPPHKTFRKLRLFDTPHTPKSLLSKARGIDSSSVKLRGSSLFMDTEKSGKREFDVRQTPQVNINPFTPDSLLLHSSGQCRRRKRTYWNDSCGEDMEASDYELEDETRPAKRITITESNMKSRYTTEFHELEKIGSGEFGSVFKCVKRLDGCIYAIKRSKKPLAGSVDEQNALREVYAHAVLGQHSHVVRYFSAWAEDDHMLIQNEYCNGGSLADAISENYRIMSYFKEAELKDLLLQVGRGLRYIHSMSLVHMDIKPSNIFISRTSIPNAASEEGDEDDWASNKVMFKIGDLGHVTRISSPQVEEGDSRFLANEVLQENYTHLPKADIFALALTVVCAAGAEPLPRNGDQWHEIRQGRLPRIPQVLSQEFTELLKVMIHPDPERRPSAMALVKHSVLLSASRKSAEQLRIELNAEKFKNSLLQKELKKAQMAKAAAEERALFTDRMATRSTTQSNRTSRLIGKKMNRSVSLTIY

Row | SMILES | IC50 (WEE1) [nM] | IC50 (PKMYT1) [nM]
1 | Cc1ccc(O)c(C)c1-n1c(N)c(C(=O)N2CCc3ncsc3C2)c2nc(C)c(C)nc21 [Example 5, (6-amino-5-(3-hydroxy-2,6-dimethylphenyl)-2,3-dimethyl-5H-pyrrolo[2,3-b]pyrazin-7-yl)(6,7-dihydrothiazolo[5,4-c]pyridin-5(4H)-yl)methanone] | > 10000 | 10 to 50
2 | Cc1ccc(O)c(C)c1-n1c(N)c(C(=O)N2CCc3nn(C)cc3C2)c2nc(C)c(C)nc21 [Example 6, (6-amino-5-(3-hydroxy-2,6-dimethylphenyl)-2,3-dimethyl-5H-pyrrolo[2,3-b]pyrazin-7-yl)(2-methyl-2,4,6,7-tetrahydro-5H-pyrazolo[4,3-c]pyridin-5-yl)methanone] | > 10000 | 10 to 50
3 | Cc1ccc(O)c(C)c1-n1c(N)c(C(=O)N2CCc3ncccc3C2)c2nc(C)c(C)nc21 [Example 7, (6-amino-5-(3-hydroxy-2,6-dimethylphenyl)-2,3-dimethyl-5H-pyrrolo[2,3-b]pyrazin-7-yl)(7,8-dihydro-1,6-naphthyridin-6(5H)-yl)methanone] | > 10000 | < 10
4 | Cc1ccc(O)c(C)c1-n1c(N)c(C(=O)N2CCc3ncsc3C2)c2cc(Cl)cnc21 [Example 9, (2-amino-5-chloro-1-(3-hydroxy-2,6-dimethylphenyl)-1H-pyrrolo[2,3-b]pyridin-3-yl)(6,7-dihydrothiazolo[5,4-c]pyridin-5(4H)-yl)methanone] | > 10000 | 10 to 50
5 | Cc1nc2n(n1)CCN(C(=O)c1c(N)n(-c3c(C)ccc(O)c3C)c3ncc(Cl)cc13)C2 [Example 10, (2-amino-5-chloro-1-(3-hydroxy-2,6-dimethylphenyl)-1H-pyrrolo[2,3-b]pyridin-3-yl)(2-methyl-5,6-dihydro-[1,2,4]triazolo[1,5-a]pyrazin-7(8H)-yl)methanone] | > 10000 | 10 to 50
6 | Cc1cc2n(n1)CCN(C(=O)c1c(N)n(-c3c(C)ccc(O)c3C)c3ncc(Cl)cc13)C2 [Example 11, (2-amino-5-chloro-1-(3-hydroxy-2,6-dimethylphenyl)-1H-pyrrolo[2,3-b]pyridin-3-yl)(2-methyl-6,7-dihydropyrazolo[1,5-a]pyrazin-5(4H)-yl)methanone] | > 10000 | 10 to 50
7 | Cc1ccc(O)c(C)c1-n1c(N)c(C(=O)N2CCn3nc(C(F)(F)F)nc3C2)c2cc(Cl)cnc21 [Example 12, (2-amino-5-chloro-1-(3-hydroxy-2,6-dimethylphenyl)-1H-pyrrolo[2,3-b]pyridin-3-yl)(2-(trifluoromethyl)-5,6-dihydro-[1,2,4]triazolo[1,5-a]pyrazin-7(8H)-yl)methanone] | > 10000 | 10 to 50
8 | Cc1ccc(O)c(C)c1-n1c(N)c(C(=O)N2CCn3ncc(CO)c3C2)c2nc(C)c(C)nc21 [Example 16, (6-amino-5-(3-hydroxy-2,6-dimethylphenyl)-2,3-dimethyl-5H-pyrrolo[2,3-b]pyrazin-7-yl)(3-(hydroxymethyl)-6,7-dihydropyrazolo[1,5-a]pyrazin-5(4H)-yl)methanone] | > 10000 | < 10
9 | Cc1ccc(O)c(C)c1-n1c(N)c(C(=O)N2CCn3nc(C(C)(C)O)cc3C2)c2nc(C)c(C)nc21 [Example 19] | – | 500 to 5000
10 | Cc1ccc(O)c(C)c1-n1c(N)c(C(=O)N2CCn3nccc3C2C)c2nc(C)c(C)nc21 (stereo not drawn) [Example 26, (6-amino-5-(3-hydroxy-2,6-dimethylphenyl)-2,3-dimethyl-5H-pyrrolo[2,3-b]pyrazin-7-yl)(4-methyl-6,7-dihydropyrazolo[1,5-a]pyrazin-5(4H)-yl)methanone] | > 10000 | 500 to 5000
11 | Cc1ccc(O)c(C)c1-n1c(N)c(C(=O)N2CCn3c(nnc3C(F)(F)F)C2)c2cc(Cl)cnc21 [Example 27, (2-amino-5-chloro-1-(3-hydroxy-2,6-dimethylphenyl)-1H-pyrrolo[2,3-b]pyridin-3-yl)(3-(trifluoromethyl)-5,6-dihydro-[1,2,4]triazolo[4,3-a]pyrazin-7(8H)-yl)methanone] | > 10000 | 50 to 500
12 | Cc1ccc(O)c(Cl)c1-n1c(N)c(C(=O)N2CCn3nccc3C2)c2nc(C)c(C)nc21 [Example 28, (6-amino-5-(2-chloro-3-hydroxy-6-methylphenyl)-2,3-dimethyl-5H-pyrrolo[2,3-b]pyrazin-7-yl)(6,7-dihydropyrazolo[1,5-a]pyrazin-5(4H)-yl)methanone] | 5430 | < 10
13 | Cc1cc(F)c(O)c(C)c1-n1c(N)c(C(=O)N2CCn3nccc3C2)c2nc(C)c(C)nc21 [Example 29, (6-amino-5-(4-fluoro-3-hydroxy-2,6-dimethylphenyl)-2,3-dimethyl-5H-pyrrolo[2,3-b]pyrazin-7-yl)(6,7-dihydropyrazolo[1,5-a]pyrazin-5(4H)-yl)methanone] | > 10000 | 10 to 50
14 | C=Cc1cnc2c(n1)c(C(=O)N1CCn3nccc3C1)c(N)n2-c1c(C)ccc(O)c1C [Example 33, (6-amino-5-(3-hydroxy-2,6-dimethylphenyl)-2-vinyl-5H-pyrrolo[2,3-b]pyrazin-7-yl)(6,7-dihydropyrazolo[1,5-a]pyrazin-5(4H)-yl)methanone] | > 10000 | 10 to 50
15 | Cc1ccc(O)c(C)c1-n1c(N)c(C(=O)N2CCn3nccc3C2)c2nc(C(F)(F)F)ncc21 [Example 38, (6-amino-5-(3-hydroxy-2,6-dimethylphenyl)-2-(trifluoromethyl)-5H-pyrrolo[3,2-d]pyrimidin-7-yl)(6,7-dihydropyrazolo[1,5-a]pyrazin-5(4H)-yl)methanone] | > 10000 | 50 to 500
16 | CC#Cc1nc2c(C(=O)N3CCn4nccc4C3)c(N)n(-c3c(C)ccc(O)c3C)c2nc1C [Example 40, (6-amino-5-(3-hydroxy-2,6-dimethylphenyl)-3-methyl-2-(prop-1-yn-1-yl)-5H-pyrrolo[2,3-b]pyrazin-7-yl)(6,7-dihydropyrazolo[1,5-a]pyrazin-5(4H)-yl)methanone] | – | 10 to 50
